A short description of the data set: Stability of tris(pentafluorophenyl)borane hydrates. The class given is physicochemical. Particulars: in solution or in the solid state. From the text: Of the class of compounds of the type (C6F5)3B-(YXH)q, when Y is hydrogen, X is oxygen, and q is 1 or 3, the complex with water is a special case. Exposure of anhydrous (C6F5)3B to water vapor, produces (C6F5)3B·3H2O, a white, stable solid. No intermediate hydrate was detected by infrared spectroscopic analysis. […] Formation of a trihydrate was unexpected because all other previously known (C6F5)3B complexes with Lewis bases have a 1:1 stoichiometry. Vacuum sublimation of the trihydrate produced a mixture of the monohydrate and (C6F5)3B. The pure monohydrate, (C6F5)3B·H2O, however may be obtained by combining in organic solvents, such as toluene or chloroform, one equivalent of (C6F5)3B·3H2O with two equivalents of (C6F5)3B followed by evaporation of the solvent. This conproportionation reaction is a convenient way of synthesizing the monohydrate as needed. […] The monohydrate may also be prepared by combining one mole each of water and (C6F5)3B.

On to `Fc1c(F)c(F)c(B(c2c(F)c(F)c(F)c(F)c2F)c2c(F)c(F)c(F)c(F)c2F)c(F)c1F.O` [Example 2], for which the stability result was “unstable and slowly decomposes”.

The record behind these values is patent EP0891991A2, “Tris(pentafluorophenyl)borate complexes and catalysts derived therefrom” (MINNESOTA MINING AND MANUFACTURING COMPANY, priority 1995, dated 1996).
